Laboratory results taken from patent US7208518B2, “Substituted furochromene compounds of antiinflammatory action” (GlaxoSmithKline Istrazivacki Centar Zagreb D.O.O., priority 2003, dated 2007).

Columns and labels:
[1] = test system: hyperreactivity of the bronchi induced by methacholine; test: Hyperreactivity of the bronchi, pletismometric method, mice; assay type: in vivo; settings: i.p. 10 mg/kg, totally for 4 days, methacholine concentration of 25 mg/mL, measured over 24 hours after the provocative test
Method: (§1) Hyperreactivity of the Bronchi
(§2) The hyperreactivity of the bronchi was measured by pletismometric method (Buxco pletismometer), which is based on pressure difference and was performed in conscious and non-bound animals. The action of the compounds on the hyperreactivity of the bronchi induced by methacholine (Sigma) in aerosol form in different concentrations was expressed by the percentage of the increase of the enhanced pause value (PENH) above the base line, which was recorded without a cholinergic stimulant.
Compound 6 was used i.p. in mice in a dosis of 10 mg/kg within a period beginning two days prior to provocative test to the end of the test, totally for 4 days. The hyperreactivity of the bronchi was measured by pletismometric method over 24 hours after the provocative test.

[2] = test system: hyperreactivity of the bronchi induced by methacholine; test: Hyperreactivity of the bronchi, pletismometric method, rats; assay type: in vivo; settings: i.p. 10 mg/kg, totally for 4 days, methacholine concentration of 50 mg/mL, measured over 24 hours after the provocative test
Method: as §1, §2
Compound 36 was used i.p. in rats in a dosis of 10 mg/kg within a period beginning two days prior to the provocative test to the end of test, totally for 4 days. The hyperreactivity of the bronchi was measured by pletismometric method over 24 hours after the provocative test.

Cc1cc(C)c2c(O)c(C3c4c(c5c(C)cc(C)cc5oc4=O)OC3O)c(=O)oc2c1 (centres unmarked) [Compound 6, 2-Hydroxy-3-(4-hydroxy-5,7-dimethyl-2-oxo-2H-chromene-3-yl)-7,9-dimethyl-2,3-dihydro-4H-furo[3,2-c]chromene-4-one]
hyperreactivity of respiratory airways (PENH) in relation to the positive control group [1]: statistically significantly (t-test, p<0.05) decreased

O=c1oc2cc(Cl)ccc2c(O)c1C1c2c(c3ccc(Cl)cc3oc2=O)OC1O (centres unmarked) [Compound 36, 2-Hydroxy-3-(4-hydroxy-7-chloro-2-oxo-2H-chromene-3-yl)-7-chloro-2,3-dihydro-4H-furo[3,2-c]chromene-4-one]
hyperreactivity of respiratory airways (PENH) in relation to the positive control group [2]: statistically significantly (t-test, p<0.01) decreased
